What was measured:
full-length human MALT1 = molecular target: T1, full-length human MALT1 (Homo sapiens, UniProt Q9UDY8); assay: MALT1 cleavage of HOIL1 (Example 5); format: biochemical; conditions: HOIL1 0.05 μg/μL with MALT1, 2 h at 37° C.; gel electrophoresis/immunoblot
T1 construct: Recombinant full-length human MALT1 protein was expressed and purified; made in house
T1 sequence (Q9UDY8 1-824): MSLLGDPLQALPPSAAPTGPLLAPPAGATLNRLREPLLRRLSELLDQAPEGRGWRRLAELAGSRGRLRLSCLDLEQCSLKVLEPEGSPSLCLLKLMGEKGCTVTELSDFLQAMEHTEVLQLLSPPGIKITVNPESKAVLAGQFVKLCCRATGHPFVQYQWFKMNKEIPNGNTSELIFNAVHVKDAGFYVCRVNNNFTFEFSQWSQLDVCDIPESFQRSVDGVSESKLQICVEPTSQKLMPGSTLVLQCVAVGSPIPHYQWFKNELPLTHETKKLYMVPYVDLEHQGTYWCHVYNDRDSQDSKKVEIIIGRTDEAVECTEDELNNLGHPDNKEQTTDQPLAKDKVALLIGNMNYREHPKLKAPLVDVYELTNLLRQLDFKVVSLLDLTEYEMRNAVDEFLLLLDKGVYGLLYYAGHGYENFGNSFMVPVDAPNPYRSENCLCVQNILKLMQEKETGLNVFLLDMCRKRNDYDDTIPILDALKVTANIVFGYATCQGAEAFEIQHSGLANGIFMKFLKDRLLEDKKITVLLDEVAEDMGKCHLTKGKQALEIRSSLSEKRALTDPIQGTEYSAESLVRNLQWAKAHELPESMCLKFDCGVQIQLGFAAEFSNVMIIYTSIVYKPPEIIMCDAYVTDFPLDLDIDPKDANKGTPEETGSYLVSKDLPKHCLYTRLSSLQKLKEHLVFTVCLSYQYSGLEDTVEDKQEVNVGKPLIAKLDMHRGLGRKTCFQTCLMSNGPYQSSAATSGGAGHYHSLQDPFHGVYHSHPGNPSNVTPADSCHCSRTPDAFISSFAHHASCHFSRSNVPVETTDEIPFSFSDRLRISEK
Experimental: Recombinant full-length human MALT1 protein was expressed and purified. C-terminal Myc-FLAG-tagged full-length human HOIL1 was obtained from Origene. HOIL1 protein (0.05 μg/μL) is incubated with different concentrations of MALT1 in assay buffer (200 mM Tris-HCl, 0.8 M Na citrate, 0.1 mM EGTA, 0.05% CHAPS, 1 mM DTT, pH 7.4) for 2 h at 37° C. Cleavage of HOIL1 was analyzed by gel electrophoresis using a 4-12% Bis-Tris SDS-polyacrylamide (PAGE) gradient gel (Life Technologies). The presence of a small fragment was confirmed by immunoblotting with an N-terminal antibody (anti-N-terminal HOIL1; HPA024185; Sigma). Total HOIL1 was observed using a C-terminal directed antibody (anti-FLAG, clone M2, Sigma). These assays are performed with both the cleavable HOIL1 and, as a negative control, a non-cleavable HOIL1 (where Lys is substituted for Arg165).

[1] = tested on: epithelial cells (e.g., HEK293 cells) bearing CARD14 gain-of-function mutations; κB-GFP readout of NFκB signaling; assay: NF-κB-GFP reporter in epithelial cells transfected with CARD14 gain-of-function cDNA (Example 4); format: cell-based; conditions: epithelial cells with CARD14 GOF variants; flow cytometry
Experimental: MALT1 inhibitors (e.g., Compounds 1.1, 1.26, 1.27, 1.30, 1.33, 2.1, and/or 2.4) are incubated with epithelial cells (e.g., HEK293 cells) that lack endogenous CARD14 and bear transiently transfected CARD14 cDNA bearing gain-of-function mutations. The epithelial cells include a reporter gene (κB-GFP) that acts as a readout of NFκB signaling. The expression of NF-κB-GFP at baseline and after anti-CD3, or PMA/ionomycin stimulation is measured.
Epithelial cells bearing gain of function variants of CARD14 have elevated baseline activation of NF-κB-GFP, and higher still after stimulation, which is assessed by flow cytometry.

patients with BENTA = assay: Clinical trial of MALT1 inhibitors for BENTA (Example 2); format: in vivo; conditions: oral once daily, 25 mg/day up to 1000 mg/day
Experimental: MALT1 inhibitors (e.g., Compounds 1.1, 1.26, 1.27, 1.30, 1.33, 2.1, and/or 2.4) are used to treat patients with BENTA. MALT1 inhibitors (e.g., Compounds 1.1, 1.26, 1.27, 1.30, 1.33, 2.1, and/or 2.4) are formulated in an oral dosage form and administered to patients once daily at a starting dose of 25 mg/day. Alternatively, the daily dose is escalated from 25 mg/day to 1000 mg/day.

[2] = tested on: mTor pathway (e.g., mTORc1 and/or mTORc2) in primary T cells; assay: mTor pathway activation in stimulated primary T cells, pAkt/pS6 staining (Example 3); format: cell-based; conditions: primary T cells after anti-CD3/anti-CD28 activation
Experimental: Primary T cells are stimulated to activation and cultured in the presence of IL-2. For stimulation, cells are preincubated with anti-CD3F and anti-CD28 on ice and washed. Cells were stimulated by crosslinking the anti-CD3 antibody with a secondary antibody (e.g., anti-mouse IgG for 10 min) in complete T cell media and then fixed with pre-warmed fixation buffer. Cells are then washed with FACS buffer and permeabilized with permeabilization buffer pre-chilled to −20° C. and incubated for 30 min on ice. Cells are washed and then stained with the following antibodies or appropriate isotype controls anti-pAkt (Ser473) and anti-pS6 (Ser240/244).
MALT1 inhibitors (e.g., Compounds 1.1, 1.26, 1.27, 1.30, 1.33, 2.1, and/or 2.4) are incubated with the primary T cells after activation.

[3] = tested on: T cells that lack endogenous CARD11 and bear transfected CARD11 gain-of-function mutations; κB-GFP readout of NFκB signaling; assay: NF-κB-GFP reporter in T cells transfected with CARD11 gain-of-function cDNA (Example 1); format: cell-based; conditions: T cells with CARD11 GOF variants; baseline and after anti-CD3 or PMA/ionomycin; flow cytometry
Experimental: MALT1 inhibitors (e.g., Compounds 1.1, 1.26, 1.27, 1.30, 1.33, 2.1, and/or 2.4) are incubated with T cells that lack endogenous CARD11 and bear transiently transfected CARD11 cDNA bearing gain-of-function mutations. An optional variation is co-transfecting 50:50 a copy of the wildtype CARD11 gene with the CARD11 gain of function mutant. The T-cells include a reporter gene (κB-GFP) that acts as a readout of NFκB signaling. The expression of NF-κB-GFP at baseline and after anti-CD3, or PMA/ionomycin stimulation is measured.
T-Cells bearing GOF variants of CARD11 have elevated baseline activation of NF-κB-GFP, and higher still after stimulation, which is assessed by flow cytometry.

Row | Structure (SMILES) | cleavage of HOIL1 (full-length human MALT1) | NF-κB-GFP expression [1] | BENTA symptoms (patients with BENTA) | Jun/Fos, NF-κB and/or mTor pathway activation in patients (patients with BENTA) | mTor pathway (mTORc1 and/or mTORc2) activation [2] | NF-κB-GFP expression [3]
1 | CO[C@@H](C)c1c(Nc2ccc([C@@H](N(C)C(=O)C3CCS(=O)(=O)CC3)C(F)(F)F)cc2)cnc2nc(Cl)nn12 [Compound 1.26, N-[(1R)-1-[4-({2-chloro-7-[(1S)-1-methoxyethyl]-[L2,4]triazolo[1,5-a]pyrimidin-6-yl}amino)phenyl]-2,2,2-trifluoroethyl]-N-methyl-1,1-dioxo-1λ^6-thiane-4-carboxamide] | cleavage of HOIL1 is reduced | lowered NF-κB-GFP expression | amelioration of their BENTA symptoms | reduced Jun/Fos, and/or NF-κB and/or a mTor pathway (e.g., mTORc1 and/or mTORc2) activation | suppress mTor pathway (e.g., mTORc1 and/or mTORc2) activation | lowered NF-κB-GFP expression
2 | CO[C@H](C)c1c(Nc2ccc([C@@H](N(C)C(=O)C3CCS(=O)(=O)CC3)C(F)(F)F)cc2)cnc2nc(Cl)nn12 [Compound 1.27, N—[(IR)—I-[4-({2-chloro-7-[(1R)-1-methoxyethyl]-[1,2,4]triazolo[1,5-a]pyrimidin-6-yl}amino)phenyl]-2,2,2-trifluoroethyl]-N-methyl-1,1-dioxo-1λ^6-thiane-4-carboxamide] | cleavage of HOIL1 is reduced | lowered NF-κB-GFP expression | amelioration of their BENTA symptoms | reduced Jun/Fos, and/or NF-κB and/or a mTor pathway (e.g., mTORc1 and/or mTORc2) activation | suppress mTor pathway (e.g., mTORc1 and/or mTORc2) activation | lowered NF-κB-GFP expression
3 | CO[C@@H](C)c1c(Nc2ccc([C@H](N(C)C(=O)C3CCS(=O)(=O)CC3)C(F)(F)F)c(C)c2)cnc2nc(Cl)nn12 [Compound 1.30, N-[(1S)-1-[4-({2-chloro-7-[(1S)-1-methoxyethyl]-[1,2,4]triazolo[1,5-a]pyrimidin-6-yl}amino)-2-methylphenyl]-2,2,2-trifluoroethyl]-N-methyl-1,1-dioxo-1λ^6-thiane-4-carboxamide] | cleavage of HOIL1 is reduced | lowered NF-κB-GFP expression | amelioration of their BENTA symptoms | reduced Jun/Fos, and/or NF-κB and/or a mTor pathway (e.g., mTORc1 and/or mTORc2) activation | suppress mTor pathway (e.g., mTORc1 and/or mTORc2) activation | lowered NF-κB-GFP expression
4 | CO[C@@H](C)c1c(Nc2ccc([C@H](N(C)C(=O)C3CCS(=O)(=O)CC3)C(F)(F)F)cc2C)cnc2nc(Cl)nn12 [Compound 1.33, N-[(1S)-1-[4-({2-chloro-7-[(1S)-1-methoxyethyl]-[1,2,4]triazolo [1,5-a]pyrimidin-6-yl}amino)-3-methylphenyl]-2,2,2-trifluoroethyl]-N-methyl 1,1-dioxo-1λ^6-thiane-4-carboxamide] | cleavage of HOIL1 is reduced | lowered NF-κB-GFP expression | amelioration of their BENTA symptoms | reduced Jun/Fos, and/or NF-κB and/or a mTor pathway (e.g., mTORc1 and/or mTORc2) activation | suppress mTor pathway (e.g., mTORc1 and/or mTORc2) activation | lowered NF-κB-GFP expression
5 | CN(C(=O)[C@H]1CC[C@H](C(=O)O)CC1)[C@@H](c1ccc(Nc2cnn(-c3ccccc3)c2C(F)(F)F)cc1)C(F)(F)F [Compound 2.1] | cleavage of HOIL1 is reduced | lowered NF-κB-GFP expression | amelioration of their BENTA symptoms | reduced Jun/Fos, and/or NF-κB and/or a mTor pathway (e.g., mTORc1 and/or mTORc2) activation | suppress mTor pathway (e.g., mTORc1 and/or mTORc2) activation | lowered NF-κB-GFP expression

Source: patent US20260240850A1, “Compositions and Methods for Treating MALT1 Associated Diseases” (Rarefied Biosciences, Inc., priority 2023, published 2026)
